Results reported in publication PMC7764606 (Cancers, 2020).
Like-named read-outs stand apart in the source and are kept apart here. One block for each compound: values may come before it.

Legend:
recombinant AKR1C3 = molecular target: T1, recombinant AKR1C3 (Homo sapiens, UniProt P42330); assay: Reduction of Dau by recombinant AKR1C3 (UHPLC detection of Dau-ol); assay type: biochemical; settings: for reduction of AKR1C3 activity (Dau reduction): Dau 500 µM, relative to DMSO; for Ki: read-out: Ki^app (Morrison equation for tight-binding inhibitors)
T1 construct: made in house; host or cells: Escherichia coli
T1 sequence (P42330 1-323): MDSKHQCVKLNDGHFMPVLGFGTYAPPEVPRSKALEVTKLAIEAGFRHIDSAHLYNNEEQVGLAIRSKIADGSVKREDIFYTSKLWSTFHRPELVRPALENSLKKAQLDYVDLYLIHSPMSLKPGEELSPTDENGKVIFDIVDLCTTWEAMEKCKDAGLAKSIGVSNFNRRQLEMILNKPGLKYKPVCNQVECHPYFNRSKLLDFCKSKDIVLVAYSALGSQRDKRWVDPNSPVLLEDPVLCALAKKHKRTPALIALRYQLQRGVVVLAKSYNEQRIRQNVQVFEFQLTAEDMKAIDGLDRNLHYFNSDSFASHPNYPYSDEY
Description: (§1) Human recombinant CREs (CBR1, AKR1A1, 1B1, 1B10, 7A2, and 1C3) were produced by an Escherichia coli expression system as per methods described previously. For the inhibitory assay, each recombinant enzyme, CBR1 (1 µg), AKR1A1 (1 µg), AKR1B1 (5 µg), AKR1B10 (5 µg), AKR7A2 (3 µg), or AKR1C3 (1.5 µg) was incubated with BTK inhibitors at different concentrations (10 and 50 µM) and the substrate Dau (500 µM). For analysis using the Lineweaver-Burk plot, 1.5 µg of recombinant AKR1C3 was incubated with DMSO or BTK inhibitors (1, 5, and 10 µM) and Dau (200, 400, 600, 800, 1000, and 2000 µM). […] The incubations and further metabolite detection were further performed by using ultra-high-performance liquid chromatography (UHPLC) as per methods described previously.

A549 cells = assay: MTT cell viability, A549 cells (incl. Chou-Talalay analysis); assay type: cell-based, human
Description: (§2) Twenty-four hours prior to the experiment, transfected HCT116 cells (8 × 10^3 cells/well) or A549 cells (5 × 10^3 cells/well) were seeded in 96-well plates. The cell culture medium was replaced with fresh medium containing increasing amounts of Dau (final concentrations: 0.01, 0.05, 0.1, 0.25, 0.5, 0.75, 1, and 10 µM) with or without BTK inhibitors (final concentrations: 1, 5, and 10 µM). After 72 h of incubation under standard conditions (37 °C, 5% CO2), cell viability was assessed by MTT (Sigma-Aldrich, Prague, Czech Republic) assay. For this, 50 µL of the MTT solution (3 mg/mL) was added to each well and incubated for 30 min. The supernatant was collected, and the cell monolayers were dissolved in 100 µL of DMSO. The absorbance was measured at 570 and 690 nm by a microplate reader Infinite M200 (Tecan, Salzburg, Austria), and the background values at 690 nm were subtracted from the absorbance obtained at 570 nm. The half-maximal inhibitory concentrations (IC50) were calculated using GraphPad Prism 8.1.2. The drug combination pharmacodynamics were determined by the Chou-Talalay method using the CompuSyn ver. 3.0.1 software (ComboSyn Inc., Paramus, NJ, USA).

[1] = system: T2, AKR1C3 in HCT116-C3 cells; assay: Dau metabolism to Dau-ol in HCT116 cells transiently overexpressing AKR1C3; assay type: cell-based, human; settings: 5 h
T2 construct: expressed in transfected cells; host or cells: HCT116
Description: (§3) HCT116 cells were seeded (1.25 × 10^5 cells/well) in 24-well plates and cultured for 24 h. For the transient expression of the recombinant human AKR1C3, the cells were transfected with a pCI_AKR1C3 or empty pCI plasmid as control (previously described in a study by Hofman et al.) according to the manufacturer’s instructions (jetPRIME® Transfection Reagent; Polyplus Transfection®, Illkirch, France). For each 24-well plate, a mixture of 0.75 µL of the jetPRIME® Transfection Reagent and 0.25 µg of plasmid was incubated for 10 min at room temperature. Then, polyplexes were added to the HCT116 cells with 0.5 mL of fresh DMEM supplemented with 10% FBS and incubated for 24 h (37 °C, 5% CO2). The expression of recombinant AKR1C3 was verified by western blotting as per methods described previously.
After transfection of HCT116 cells or seeding of A549 cells (25 × 10^3 cells/well) in 24-well plates for 24 h, the medium was harvested and replaced with DMEM supplemented with 10% FBS containing 1 µM daunorubicin, with or without increasing concentrations (1, 5, and 10 μM) of BTK inhibitors. Cells were incubated (37 °C, 5% CO2) for 2.5 and 5 h (transfected HCT116) or only 5 h (A549). Then, the medium was collected and the cells were lysed in lysis buffer (25 mM Tris, 150 mM NaCl, and 1% Triton X-100, pH 7.8) for 15 min at room temperature. The collected medium was combined with cell lysate for further extraction and analysis of metabolites, as per methods described previously.

recombinant AKR1B10 = system: T3, recombinant AKR1B10; assay: Reduction of Dau by recombinant AKR1B10 (UHPLC detection of Dau-ol); assay type: biochemical, Human; settings: Dau 500 µM, relative to DMSO
T3 construct: made in house; host or cells: Escherichia coli
Description: as §1

[2] = single oral dose of 140 mg; cited from earlier work
HCT116-EV cells = assay: MTT cell viability, HCT116-EV cells (incl. Chou-Talalay analysis); assay type: cell-based, human
Description: as §3, §2

[3] = system: AKR1C3 expression in A549 cells; assay: AKR1C3 protein levels in A549 cells by western blotting; assay type: cell-based, human; settings: 1, 5 and 10 µM, 72 h, western blot relative to β-actin
Description: A549 cells were incubated with DMSO or BTK inhibitors (1, 5, and 10 µM) for 72 h, and then total protein was extracted for analysis of AKR1C3 expression by western blotting (WB) as per methods described previously. A representative WB is shown for IBR (A) and ACA (B) incubations, and bars represent AKR1C3 protein levels as determined by densitometry relative to β-actin (n = 3, mean ± SD). Uncropped images from WB are available in Figure S1 in the Supplementary Materials. On the other hand, HCT116-EV and HCT116-C3 cells were treated with increasing concentrations of IBR (C) and ACA (D) for 72 h, and their viability was assessed by MTT assay. Graphs represent a comparison of the dose-response curves for percentages of cell viability in each cell line (n = 6, mean ± SD).

[4] = BTK-inhibitor 5 µM + Dau 0.25 µM
[5] = BTK-inhibitor 5 µM + Dau 0.50 µM

- Km (recombinant AKR1C3; substrate Dau, recombinant AKR1C3, read-out: Km used in the Morrison equation): 387 ± 36 µM
SMILES: COc1cccc2c1C(=O)c1c(O)c3c(c(O)c1C2=O)C[C@@](O)(C(C)=O)C[C@@H]3O[C@H]1C[C@H](N)[C@H](O)[C@H](C)O1 [Dau, daunorubicin]

- reduction of AKR1C3 activity (Dau reduction) (recombinant AKR1C3; 10 µM BTK inhibitor): 92.17% ± 3.43%
- reduction of AKR1C3 activity (Dau reduction) (recombinant AKR1C3; 50 µM BTK inhibitor): 96.41% ± 1.48%
- Ki (recombinant AKR1C3; AKR1C3 0.005 mg/mL (0.135 μM)): 312 nM
- Ki (recombinant AKR1C3; AKR1C3 0.015 mg/mL (0.405 μM)): 332 nM
- Ki (recombinant AKR1C3; AKR1C3 0.030 mg/mL (0.811 μM)): 354 nM
- mode of inhibition (Lineweaver-Burk plot) (recombinant AKR1C3; recombinant AKR1C3 with increasing Dau): non-competitive/mixed
- IC50 (HCT116-EV cells; Homo sapiens, 72 h MTT, read-out: IC50 of BTK inhibitor alone (cell viability)): 17000 nM
SMILES: C=CC(=O)N1CCC[C@@H](n2nc(-c3ccc(Oc4ccccc4)cc3)c3c(N)ncnc32)C1 [Ibrutinib, ibrutinib]
- Fraction affected (Fa %) (A549 cells; BTK-inhibitor 1 µM + Dau 0.01 µM): 21.92 ± 2.37%
- Fraction affected (Fa %) (A549 cells; BTK-inhibitor 1 µM + Dau 0.25 µM): 43.16 ± 2.59%
- Fraction affected (Fa %) (A549 cells; BTK-inhibitor 1 µM + Dau 0.50 µM): 71.16 ± 6.46%
- Fraction affected (Fa %) (A549 cells; BTK-inhibitor 1 µM + Dau 0.75 µM): 86.63 ± 0.72%
- Fraction affected (Fa %) (A549 cells; BTK-inhibitor 1 µM + Dau 1.00 µM): 91.12 ± 0.72%
- Fraction affected (Fa %) (A549 cells; BTK-inhibitor 5 µM + Dau 0.01 µM): 33.76 ± 1.79%
- Fraction affected (Fa %) (A549 cells; [4]): 54.13 ± 5.98%
- Fraction affected (Fa %) (A549 cells; [5]): 85.67 ± 2.02%
- Fraction affected (Fa %) (A549 cells; BTK-inhibitor 5 µM + Dau 0.75 µM): 91.76 ± 0.78%
- Fraction affected (Fa %) (A549 cells; BTK-inhibitor 5 µM + Dau 1.00 µM): 94.00 ± 0.28%
- decrease in AKR1C3 activity (Dau to Dau-ol) ([1]; 1 µM BTK inhibitor + 1 µM Dau): 29.40% ± 11.55%
- decrease in AKR1C3 activity (Dau to Dau-ol) ([1]; 5 µM BTK inhibitor + 1 µM Dau): 45.16% ± 0.86%
- decrease in AKR1C3 activity (Dau to Dau-ol) ([1]; 10 µM BTK inhibitor + 1 µM Dau): 60.72% ± 6%
- inhibition of AKR1B10 activity (Dau reduction) (recombinant AKR1B10; 10 µM BTK inhibitor): 48.18% ± 2.10%
- inhibition of AKR1B10 activity (Dau reduction) (recombinant AKR1B10; 50 µM BTK inhibitor): 74.97% ± 0.87%
- mean Cmax [2]: 37.1 ng/mL
- Fraction affected (Fa %) (HCT116-EV cells; [4]): 58.13 ± 12.2%
- Fraction affected (Fa %) (HCT116-EV cells; [5]): 77.56 ± 6.90%
- Fraction affected (Fa %) (HCT116-EV cells; BTK-inhibitor 10 µM + Dau 0.25 µM): 58.56 ± 7.79%
- Fraction affected (Fa %) (HCT116-EV cells; BTK-inhibitor 10 µM + Dau 0.50 µM): 81.92 ± 4.25%
- effect on expression (protein levels) of AKR1C3 [3]: negligible or absence of effects
